Source: ChEMBL document CHEMBL3792297, “Studies on phenothiazines: New microtubule-interacting compounds with phenothiazine A-ring as potent antineoplastic agents” (Bioorg Med Chem, 2016)

Experiments:
[1] = system: SN12C; assay: Growth inhibition of human SN12C cells at 10 uM after 48 hrs by SRB assay relative to control; type: functional; conditions: read-out: GI
[2] = system: MDA-MB-468; assay: Growth inhibition of human MDA-MB-468 cells at 10 uM after 48 hrs by SRB assay relative to control; type: functional; conditions: MDA-MB-468, 48 h, read-out: GI
[3] = Growth inhibition of human TK10 cells at 10 uM after 48 hrs by SRB assay relative to control; type: functional; conditions: TK-10, 48 h, read-out: GI
[4] = Growth inhibition of human RXF393 cells at 10 uM after 48 hrs by SRB assay relative to control; type: functional; conditions: RXF 393, 48 h, read-out: GI
[5] = system: SK-MEL-28; assay: Growth inhibition of human SK-MEL-28 cells at 10 uM after 48 hrs by SRB assay relative to control; type: functional; conditions: SK-MEL-28, 48 h, read-out: GI
[6] = Growth inhibition of human COLO205 cells at 10 uM after 48 hrs by SRB assay relative to control; type: functional; conditions: COLO 205, 48 h, read-out: GI
[7] = Growth inhibition of human HL-60(TB) cells at 10 uM after 48 hrs by SRB assay relative to control; type: functional; conditions: HL-60, 48 h, read-out: GI
[8] = system: CCRF-CEM; assay: Growth inhibition of human CCRF-CEM cells at 10 uM after 48 hrs by SRB assay relative to control; type: functional; conditions: read-out: GI
[9] = system: MCF7; assay: Growth inhibition of human MCF7 cells at 10 uM after 48 hrs by SRB assay relative to control; type: functional; conditions: MCF7, 48 h, read-out: GI
[10] = Growth inhibition of human PC3 cells at 10 uM after 48 hrs by SRB assay relative to control; type: functional; conditions: PC-3, 48 h, read-out: GI
[11] = Growth inhibition of human UO31 cells at 10 uM after 48 hrs by SRB assay relative to control; type: functional; conditions: UO-31, 48 h, read-out: GI
[12] = system: EKVX; assay: Growth inhibition of human EKVX cells at 10 uM after 48 hrs by SRB assay relative to control; type: functional; conditions: read-out: GI
[13] = Growth inhibition of human SF295 cells at 10 uM after 48 hrs by SRB assay relative to control; type: functional; conditions: SF-295, 48 h, read-out: GI
[14] = system: SK-MEL-2; assay: Growth inhibition of human SK-MEL-2 cells at 10 uM after 48 hrs by SRB assay relative to control; type: functional; conditions: SK-MEL-2, 48 h, read-out: GI
[15] = Growth inhibition of human LOXIMVI cells at 10 uM after 48 hrs by SRB assay relative to control; type: functional; conditions: LOX IMVI, read-out: GI
[16] = Growth inhibition of human SNB75 cells at 10 uM after 48 hrs by SRB assay relative to control; type: functional; conditions: SNB-75, 48 h, read-out: GI
[17] = Growth inhibition of human Hs 578T cells at 10 uM after 48 hrs by SRB assay relative to control; type: functional; conditions: read-out: GI
[18] = Growth inhibition of human Caki1 cells at 10 uM after 48 hrs by SRB assay relative to control; type: functional; conditions: CAKI-1, 48 h, read-out: GI
[19] = system: 786-0; assay: Growth inhibition of human 786-0 cells at 10 uM after 48 hrs by SRB assay relative to control; type: functional; conditions: 786-0, 48 h, read-out: GI
[20] = Growth inhibition of human DU145 cells at 10 uM after 48 hrs by SRB assay relative to control; type: functional; conditions: DU-145, 48 h, read-out: GI
[21] = Growth inhibition of human SF268 cells at 10 uM after 48 hrs by SRB assay relative to control; type: functional; conditions: SF-268, 48 h, read-out: GI
[22] = Growth inhibition of human SKOV3 cells at 10 uM after 48 hrs by SRB assay relative to control; type: functional; conditions: SK-OV-3, 48 h, read-out: GI
[23] = system: A498; assay: Growth inhibition of human A498 cells at 10 uM after 48 hrs by SRB assay relative to control; type: functional; conditions: A498, 48 h, read-out: GI
[24] = Growth inhibition of human OVCAR4 cells at 10 uM after 48 hrs by SRB assay relative to control; type: functional; conditions: OVCAR-4, 48 h, read-out: GI
[25] = system: MDA-MB-435; assay: Growth inhibition of human MDA-MB-435 cells at 10 uM after 48 hrs by SRB assay relative to control; type: functional; conditions: MDA-MB-435, 48 h, read-out: GI
[26] = system: MDA-MB-231; assay: Growth inhibition of human MDA-MB-231 cells at 10 uM after 48 hrs by SRB assay relative to control; type: functional; conditions: MDA-MB-231, 48 h, read-out: GI
[27] = system: SR; assay: Growth inhibition of human SR cells at 10 uM after 48 hrs by SRB assay relative to control; type: functional; conditions: read-out: GI
[28] = Growth inhibition of human OVCAR8 cells at 10 uM after 48 hrs by SRB assay relative to control; type: functional; conditions: OVCAR-8, 48 h, read-out: GI
[29] = species on record: Ovis aries; assay: Inhibition of sheep brain tubulin polymerization at 100 uM by DAPI staining-based fluorimetric method
[30] = Growth inhibition of human UACC257 cells at 10 uM after 48 hrs by SRB assay relative to control; type: functional; conditions: UACC-257, 48 h, read-out: GI
[31] = system: NCI-H522; assay: Growth inhibition of human NCI-H522 cells at 10 uM after 48 hrs by SRB assay relative to control; type: functional; conditions: NCI-H522, 48 h, read-out: GI
[32] = Growth inhibition of human IGROV1 cells at 10 uM after 48 hrs by SRB assay relative to control; type: functional; conditions: IGROV-1, 48 h, read-out: GI
[33] = Growth inhibition of human UACC62 cells at 10 uM after 48 hrs by SRB assay relative to control; type: functional; conditions: UACC-62, 48 h, read-out: GI
[34] = Growth inhibition of human RPMI8226 cells at 10 uM after 48 hrs by SRB assay relative to control; type: functional; conditions: RPMI-8226, 48 h, read-out: GI
[35] = system: NCI-H460; assay: Growth inhibition of human NCI-H460 cells at 10 uM after 48 hrs by SRB assay relative to control; type: functional; conditions: NCI-H460, 48 h, read-out: GI
[36] = Growth inhibition of human HCT116 cells at 10 uM after 48 hrs by SRB assay relative to control; type: functional; conditions: HCT-116, 48 h, read-out: GI
[37] = system: HT-29; assay: Growth inhibition of human HT-29 cells at 10 uM after 48 hrs by SRB assay relative to control; type: functional; conditions: HT-29, 48 h, read-out: GI
[38] = system: NCI-H322M; assay: Growth inhibition of human NCI-H322M cells at 10 uM after 48 hrs by SRB assay relative to control; type: functional; conditions: read-out: GI
[39] = system: NCI-H226; assay: Growth inhibition of human NCI-H226 cells at 10 uM after 48 hrs by SRB assay relative to control; type: functional; conditions: NCI-H226, 48 h, read-out: GI

O=C(c1ccc(Cl)cc1Cl)N1c2ccccc2Sc2ccccc21
inhibition of growth at 10 µM [1]: 33%
inhibition of growth at 10 µM [2]: 49%
inhibition of growth at 10 µM [3]: 27%
inhibition of growth at 10 µM [4]: 30%
inhibition of growth at 10 µM [5]: 35%
inhibition of growth at 10 µM [6]: 55%
inhibition of growth at 10 µM [7]: 64%
inhibition of growth at 10 µM [8]: 43%
inhibition of growth at 10 µM [9]: 48%
inhibition of growth at 10 µM [10]: 56%
inhibition of growth at 10 µM [11]: 35%
inhibition of growth at 10 µM [12]: 24%
inhibition of growth at 10 µM [13]: 47%
inhibition of growth at 10 µM [14]: 21%
inhibition of growth at 10 µM [15]: 76%
inhibition of growth at 10 µM [16]: 40%
inhibition of growth at 10 µM [17]: 4%
inhibition of growth at 10 µM [18]: 50%
inhibition of growth at 10 µM [19]: 33%
inhibition of growth at 10 µM [20]: 35%
inhibition of growth at 10 µM [21]: 50%
inhibition of growth at 10 µM [22]: 31%
inhibition of growth at 10 µM [23]: 31%
inhibition of growth at 10 µM [24]: 18%
inhibition of growth at 10 µM [25]: 52%
inhibition of growth at 10 µM [26]: 31%
inhibition of growth at 10 µM [27]: 68%
inhibition of growth at 10 µM [28]: 49%
inhibition [29]: 44%
inhibition of growth at 10 µM [30]: 36%
inhibition of growth at 10 µM [31]: 36%
inhibition of growth at 10 µM [32]: 39%
inhibition of growth at 10 µM [33]: 57%
inhibition of growth at 10 µM [34]: 45%
inhibition of growth at 10 µM [35]: 82%
inhibition of growth at 10 µM [36]: 77%
inhibition of growth at 10 µM [37]: 52%
inhibition of growth at 10 µM [38]: 15%
inhibition of growth at 10 µM [39]: 32%

COc1ccc(C(=O)N2c3ccccc3Sc3ccccc32)c(C(F)(F)F)c1
inhibition of growth at 10 µM [1]: 60%
inhibition of growth at 10 µM [2]: 70%
inhibition of growth at 10 µM [3]: 43%
inhibition of growth at 10 µM [4]: 85%
inhibition of growth at 10 µM [5]: 48%
inhibition of growth at 10 µM [6]: 100%
inhibition of growth at 10 µM [7]: 98%
inhibition of growth at 10 µM [8]: 78%
inhibition of growth at 10 µM [9]: 83%
inhibition of growth at 10 µM [10]: 85%
inhibition of growth at 10 µM [11]: 60%
inhibition of growth at 10 µM [12]: 54%
inhibition of growth at 10 µM [13]: 95%
inhibition of growth at 10 µM [14]: 53%
inhibition of growth at 10 µM [15]: 83%
inhibition of growth at 10 µM [16]: 71%
inhibition of growth at 10 µM [17]: 76%
inhibition of growth at 10 µM [18]: 68%
inhibition of growth at 10 µM [19]: 61%
inhibition of growth at 10 µM [20]: 86%
inhibition of growth at 10 µM [21]: 65%
inhibition of growth at 10 µM [22]: 66%
inhibition of growth at 10 µM [23]: 91%
inhibition of growth at 10 µM [24]: 53%
inhibition of growth at 10 µM [25]: 100%
inhibition of growth at 10 µM [26]: 76%
inhibition of growth at 10 µM [27]: 84%
inhibition of growth at 10 µM [28]: 85%
inhibition [29]: 80%
inhibition of growth at 10 µM [30]: 38%
inhibition of growth at 10 µM [31]: 98%
inhibition of growth at 10 µM [32]: 62%
inhibition of growth at 10 µM [33]: 68%
inhibition of growth at 10 µM [34]: 86%
inhibition of growth at 10 µM [35]: 90%
inhibition of growth at 10 µM [36]: 93%
inhibition of growth at 10 µM [37]: 97%
inhibition of growth at 10 µM [38]: 47%
inhibition of growth at 10 µM [39]: 87%
